Measured values as given in PMC5819902, “Activation loop targeting strategy for design of receptor-interacting protein kinase 2 (RIPK2) inhibitors” (Bioorganic & Medicinal Chemistry Letters, 2018).
Each block holds one compound with its values, some of them ahead of it.

What was measured:
Format in all cases: biochemical
R171C RIPK2 [1] = target: T1, R171C RIPK2 (Homo sapiens, UniProt O43353, R171C); test: in vitro enzyme inhibition, % inhibition at […]; details: 5 µM
[2] = target: T2, receptor-interacting protein kinase 2 (RIPK2) (Homo sapiens, UniProt O43353); test: in vitro enzyme inhibition, % inhibition at […]; details: 5 µM
[3] = target: T2, receptor-interacting protein kinase 2 (RIPK2); test: in vitro RIPK2 enzyme inhibition
R171C RIPK2 [4] = target: T1, R171C RIPK2; test: in vitro enzyme inhibition, % inhibition at […]; details: 1 µM
[5] = target: T2, receptor-interacting protein kinase 2 (RIPK2); test: in vitro enzyme inhibition, % inhibition at […]; details: 1 µM
[6] = target: T2, receptor-interacting protein kinase 2 (RIPK2); test: in vitro enzyme inhibition, % inhibition at […]; details: 0.5 µM
R171C RIPK2 [7] = target: T1, R171C RIPK2; test: in vitro RIPK2 enzyme inhibition
[8] = target: T2, receptor-interacting protein kinase 2 (RIPK2); test: X-ray co-crystal structure ([…] Å); in vitro enzyme inhibition IC50

T1 sequence (O43353 whole entry R171C): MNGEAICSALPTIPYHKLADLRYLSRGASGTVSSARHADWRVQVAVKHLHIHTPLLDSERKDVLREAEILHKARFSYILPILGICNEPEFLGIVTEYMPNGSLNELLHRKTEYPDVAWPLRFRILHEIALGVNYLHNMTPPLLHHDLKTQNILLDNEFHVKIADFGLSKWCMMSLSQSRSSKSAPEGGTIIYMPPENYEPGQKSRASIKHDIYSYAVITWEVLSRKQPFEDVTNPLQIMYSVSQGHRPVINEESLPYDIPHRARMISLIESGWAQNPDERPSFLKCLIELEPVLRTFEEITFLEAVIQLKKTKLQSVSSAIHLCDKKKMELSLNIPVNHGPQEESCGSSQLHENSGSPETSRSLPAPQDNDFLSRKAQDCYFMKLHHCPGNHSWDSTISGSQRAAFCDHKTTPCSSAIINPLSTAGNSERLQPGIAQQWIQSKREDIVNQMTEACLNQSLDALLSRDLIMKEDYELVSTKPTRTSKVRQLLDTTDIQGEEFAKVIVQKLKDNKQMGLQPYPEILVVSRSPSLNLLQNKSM
T2 sequence (O43353 whole entry): as the sequence (O43353 whole entry R171C) above, with C171R counted along it

Compound: CNC(=O)c1cc(Oc2ccc(NC(=O)Nc3cccc(C(C)(C)C(=O)O)c3)c(F)c2)ccn1 [CSR29]
- % Inhibition / R171C RIPK2 (R171C RIPK2 [1]): 67

Compound: CNC(=O)c1cc(Oc2ccc(NC(=O)Nc3cccc(CC(=O)OC)c3)c(F)c2)ccn1 [CSR30]
- % Inhibition / RIPK2 WT [2]: 69
- % Inhibition / R171C RIPK2 (R171C RIPK2 [1]): 76

Compound: CNC(=O)c1cc(Oc2ccc(NC(=O)Nc3cccc(CC#N)c3)c(F)c2)ccn1 [CSR25]
- % Inhibition / RIPK2 WT [6]: 43

Results, then the compound that gave them:

- IC50 [3]: 13.2 ± 1.7 µM
Compound: O=C(O)CSc1ccc(NC(=O)Nc2ccccc2F)cc1F [CSR35F2]

- % Inhibition / R171C RIPK2 (R171C RIPK2 [4]): 92
- % Inhibition / RIPK2 WT [5]: 94
Compound: CNC(=O)c1cc(Oc2ccc(NC(=O)Nc3ccc(SCC(=O)OC)c(F)c3)c(F)c2)ccn1 [CSR36]

- IC50 (R171C RIPK2 [7]): 4.87 ± 0.96 µM
- IC50 [8]: 2260 ± 110 nM
Compound: CNC(=O)c1cc(Oc2ccc(NC(=O)Nc3ccc(SCC(=O)O)c(F)c3)c(F)c2)ccn1 [CSR35]
